In patent US20070293560A1, “Compounds and compositions” (priority 2006, published 2007):
Blank lines part the entries; values can stand above or below the molecule they belong to.

Assays:
[1] = target: T1, m-calpain (Homo sapiens, UniProt P17655); test: m-calpain inhibition, fluorescence-based assay with BODIPY-casein substrate; format: biochemical
T1 sequence (P17655 1-700): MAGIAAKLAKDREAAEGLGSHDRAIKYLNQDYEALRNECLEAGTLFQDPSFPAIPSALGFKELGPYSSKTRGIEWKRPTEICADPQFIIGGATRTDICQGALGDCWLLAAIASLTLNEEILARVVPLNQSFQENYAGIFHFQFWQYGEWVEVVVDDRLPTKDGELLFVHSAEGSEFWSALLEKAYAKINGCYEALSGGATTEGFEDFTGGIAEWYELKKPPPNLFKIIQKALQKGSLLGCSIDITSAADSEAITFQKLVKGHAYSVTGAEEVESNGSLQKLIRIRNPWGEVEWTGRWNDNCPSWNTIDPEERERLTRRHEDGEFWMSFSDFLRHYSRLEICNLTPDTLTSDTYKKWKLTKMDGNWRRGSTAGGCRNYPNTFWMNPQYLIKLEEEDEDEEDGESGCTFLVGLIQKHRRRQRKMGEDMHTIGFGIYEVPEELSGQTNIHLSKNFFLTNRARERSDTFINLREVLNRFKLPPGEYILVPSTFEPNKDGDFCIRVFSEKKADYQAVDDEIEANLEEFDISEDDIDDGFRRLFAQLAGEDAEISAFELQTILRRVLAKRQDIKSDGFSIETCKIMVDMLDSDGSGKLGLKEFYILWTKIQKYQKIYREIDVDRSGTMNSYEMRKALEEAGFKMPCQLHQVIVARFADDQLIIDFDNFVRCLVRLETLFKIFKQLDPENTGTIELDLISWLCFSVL
T1 sequence (P04632 1-268 partner): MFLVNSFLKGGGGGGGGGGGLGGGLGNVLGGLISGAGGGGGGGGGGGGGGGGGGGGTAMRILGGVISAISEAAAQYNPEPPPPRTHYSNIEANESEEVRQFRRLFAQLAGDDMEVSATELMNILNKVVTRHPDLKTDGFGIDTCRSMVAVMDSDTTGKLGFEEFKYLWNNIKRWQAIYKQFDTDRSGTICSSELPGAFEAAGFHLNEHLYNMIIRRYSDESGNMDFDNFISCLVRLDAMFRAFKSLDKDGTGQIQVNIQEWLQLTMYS
Protocol: The peptidic alcohol 3 and aldehyde 6 were assayed against m-calpain using a BODIPY-casein substrate in the fluorescence-based assay procedure of V. F. Thompson, S. Saldana, J. Cong and D. E. Goll, Anal. Biochem. 2000, 279, 170.
The results of the enzyme inhibition assay for 3 and 6 are graphically represented in FIGS. 1 and 2, respectively.

[2] = In vivo eye irritation in a lamb after ointment application; conditions: 1% ointment (50 mg) applied to one eye of a lamb, three times in one day
Protocol: (§1) An ointment (50 mg) comprising 1% of the peptidic aldehyde 6 was applied to one eye of a lamb, three times in one day.

[3] = Detection of 6 in ovine body parts by LCMS after ointment application to one eye; format: in vivo, lamb; conditions: for Compound 6 detected: 1% ointment 50 mg three times in one day
Protocol: as §1
Various body parts were assayed for trace amounts of 6 by LCMS using a method similar to that described by A. Maltese and C. Bucolo, Biomedical Chromatography 2000, 16, 274. A rapid high-performance liquid chromatographic method using a C18 reversed-phase column with UV detection at 254 nm was used for the analysis of 6 in ovine samples. A water solution containing 2% ZnSO4.7H2O was used to deproteinise the samples. The mobile phase consisted of CH3CN and H2O containing 0.05% TFA.

[4] = system: adult ovine lens; test: In vitro lens culture assay, calcium induced cataract; format: cell-based; conditions: ovine lens preincubated with 0.8 μM for 2 hours, then 5 mM calcium chloride for 20 hours
Protocol: The ability of the peptidic aldehyde 6 to prevent the formation of a calcium induced cataract in adult ovine lens was assayed using the procedure of J. Sanderson, J. M. Marciantonio and G. A. Duncan, Invest. Opth. Vis. Sci. 2000, 41, 2255. Three pairs of lenses were tested. One lens from each pair was preincubated with [0.8 μM] 6 for 2 hours while the other was incubated in EMEM-culture media at 35° C., 5% CO2. Then 5 mM calcium chloride was added onto both the inhibitor treated lens and the other lens, and both lenses were then incubated for 20 hours. One pair of lenses was photographed when the assay had been completed.

[5] = Ovine cornea penetration, modified Ussing chamber and LCMS; format: in vitro ADME; conditions: adult ovine cornea, Ussing chamber, 37° C., 3 hours, LCMS
Protocol: The peptidic aldehyde 6 was assayed for ovine cornea penetration using a modified Ussing chamber and LCMS based on the procedure of Youn Bok Chung, Kun Han and Vincent H. L. Lee, Pharmaceutical Research, 2000, 15, 1882. Compound 6 (3.5 mg) was dissolved in buffer A (5 mL) and added to the epithelial side a modified Ussing chamber with a pre-mounted adult ovine cornea. Buffer B (5 mL) was added to the endothelial side of the chamber and the whole chamber was incubated 37° C. for 3 hours, 5% CO2. Samples were taken from both sides of the chamber at time=0 and 180 minutes. The samples were analysed for compound 6 using LCMS.

[6] = system: cataracts; test: In vivo cataract progression in lambs, ointment on the eye; parameters: species or system lamb; conditions: 1% ointment (25 mg) twice daily, 24 lambs
Protocol: An ointment (25 mg) comprising 1% of the peptidic aldehyde 6 was applied twice daily to the left eye of 24 lambs for three months starting when they were two to three months old. The progression of cataracts was determined by a veterinary opthalmologist with a slit-lamp microscope.

melting point: 46 to 48 °C
Compound: CC(C)C[C@@H](CO)NC(=O)[C@@H](NC(=O)c1ccc(C=O)o1)C(C)C [Compound 7, 5-Formyl-furan-2-carboxylic acid [(S)-1-((S)-1-hydroxymethyl-3-methyl-butylcarbamoyl)-2-methyl-propyl]-amide]

IC50 [1]: 120 µM
Compound: CC(C)C[C@@H](CO)NC(=O)[C@@H](NC(=O)c1ccc(C=O)o1)C(C)C [Compound 4, 5-Formyl-furan-2-carboxylic acid [(S)-1-((S)-1-hydroxymethyl-3-methyl-butylcarbamoyl)-2-methyl-propyl]-amide]

Continued, molecule first:

Compound: CC(C)C[C@@H](CO)NC(=O)[C@@H](NC(=O)c1ccc(C=O)[nH]1)C(C)C [Compound 3, 5-Formyl-1H-pyrrole-2-carboxylic acid [(S)-1-((S)-1-hydroxymethyl-3-methyl-butylcarbamoyl)-2-methyl-propyl]-amide]
IC50 [1]: 0.97 µM

Compound: CC(C)C[C@@H](CO)NC(=O)[C@@H](NC(=O)c1ccc(C=O)s1)C(C)C [Compound 5, 5-Formyl-thiophene-2-carboxylic acid [(S)-1-((S)-1-hydroxymethyl-3-methyl-butylcarbamoyl)-2-methyl-propyl]-amide]
IC50 [1]: 30.4 µM

Compound: CC(C)C[C@@H](C=O)NC(=O)[C@@H](NC(=O)c1ccc(C=O)[nH]1)C(C)C [Compound 6, 5-Formyl-1H-pyrrole-2-carboxylic acid [(S)-1-((S)-1-formyl-3-methyl-butylcarbamoyl)-2-methyl-propyl]-amide]
Eye irritation [2]: No sign of irritation | Amount detected ([3]; Aqueous humour (treated eye)): 8 ng | Compound 6 detected ([3]; Aqueous humour (treated eye)): yes | Compound 6 detected ([3]; Kidney): no | Amount detected ([3]; Lens (treated eye)): 6 ng | Compound 6 detected ([3]; Lens (treated eye)): yes | Compound 6 detected ([3]; Liver): no | Compound 6 detected ([3]; Plasma): no | Amount detected ([3]; Vitreous humour (treated eye)): 4 ng | Compound 6 detected ([3]; Vitreous humour (treated eye)): yes | Inhibition of cataract formation [4]: yes | IC50 [1]: 0.03 µM | Cornea penetration [5]: yes | Cataract progression, treated left eye ([6]; first month following treatment (p<0.05)): significantly slower cataract progression | Cataract progression, treated versus untreated eyes ([6]; following two months): no significant differences
